Measurements reported in US8754068B2, “Modified C-3 betulinic acid derivatives as HIV maturation inhibitors” (priority 2010, dated 2014).
pEC50: −log10 of the molar value.

test system: recombinant NL4-3 virus (Renilla luciferase in nef, Gag P373S); assay: HIV cell culture assay (luciferase reporter virus in MT-2 cells); assay type: cell-based; conditions: NL43
Protocol: HIV cell culture assay—MT-2 cells and 293T cells were obtained from the NIH AIDS Research and Reference Reagent Program. MT-2 cells were propagated in RPMI 1640 media supplemented with 10% heat inactivated fetal bovine serum, […]. The 293T cells were propagated in DMEM media supplemented with 10% heat inactivated fetal bovine serum (FBS), 100 units/ml penicillin G and 100 μg/ml streptomycin. The proviral DNA clone of NL4-3 was obtained from the NIH AIDS Research and Reference Reagent Program. A recombinant NL4-3 virus, in which a section of the nef gene from NL4-3 was replaced with the Renilla luciferase gene, was used as a reference virus. In addition, residue Gag P373 was converted to P373S. Briefly, the recombinant virus was prepared by transfection of the altered proviral clone of NL4-3. Transfections were performed in 293T cells using LipofectAMINE PLUS from Invitrogen (Carlsbad, Calif.), according to manufacturer's instruction. The virus was titered in MT-2 cells using luciferase enzyme activity as a marker. Luciferase was quantitated using the Dual Luciferase kit from Promega (Madison, Wis.), with modifications to the manufacturer's protocol. The diluted Passive Lysis solution was pre-mixed with the re-suspended Luciferase Assay Reagent and the re-suspended Stop & Glo Substrate (2:1:1 ratio). Fifty (50) μL of the mixture was added to each aspirated well on assay plates and luciferase activity was measured immediately on a Wallac TriLux (Perkin-Elmer). Antiviral activities of inhibitors toward the recombinant virus were quantified by measuring luciferase activity in cells infected for 4-5 days with NLRluc recombinants in the presence serial dilutions of the inhibitor. Table 1 is the key for the data in Table 2.

Row | SMILES | pEC50
1 | C=C(C)[C@@H]1CC[C@]2(CO)CC[C@]3(C)[C@H](CC[C@@H]4[C@@]5(C)CC=C(c6ccc(C(=O)O)c(F)c6)C(C)(C)[C@@H]5CC[C@]43C)[C@@H]12 [Example 5m, 2-fluoro-4-((1R,3aS,5aR,5bR,7aR,11aS,11bR,13aR,13bR)-3a-(hydroxymethyl)-5a,5b,8,8,11a-pentamethyl-1-(prop-1-en-2-yl)-2,3,3a,4,5,5a,5b,6,7,7a,8,11,11a,11b,12,13,13a,13b-octadecahydro-1H-cyclopenta[a]chrysen-9-yl)benzoic acid] | > 6.00
2 | CC1(C)CC[C@]2(C(=O)O)CC[C@]3(C)C(=CC[C@@H]4[C@@]5(C)CC=C(c6ccc(C(=O)O)cc6)C(C)(C)[C@@H]5CC[C@]43C)[C@@H]2C1 [Example 13, (4aS,6aS,6bR,8aR,12aS,12bR,14bS)-10-(4-carboxyphenyl)-2,2,6a,6b,9,9,12a-heptamethyl-1,2,3,4,4a,5,6,6a,6b,7,8,8a,9,12,12a,12b,13,14b-octadecahydropicene-4-a-carboxylic acid] | > 6.00
3 | C=C(C)[C@@H]1CC[C@]2(CO)CC[C@]3(C)[C@H](CC[C@@H]4[C@@]5(C)CC=C(c6ccc(C(=O)O)s6)C(C)(C)[C@@H]5CC[C@]43C)[C@@H]12 [Example 5c, 5-((1R,3aS,5aR,5bR,7aR,11aS,11bR,13bR)-3a-(hydroxymethyl)-5a,5b,8,8,11a-pentamethyl-1-(prop-1-en-2-yl)-2,3,3a,4,5,5a,5b,6,7,7a,8,11,11a,11b,12,13,13a,13b-octadecahydro-1H-cyclopenta[a]chrysen-9-yl)thiophene-2-carboxylic acid] | 6.64
4 | C=C(C)[C@@H]1CC[C@]2(CO)CC[C@]3(C)[C@H](CC[C@@H]4[C@@]5(C)CC=C(c6ccc(C(=O)O)c(O)c6)C(C)(C)[C@@H]5CC[C@]43C)[C@@H]12 [Example 5p, 2-hydroxy-4-((1R,3aS,5aR,5bR,7aR,11aS,11bR,13aR,13bR)-3a-(hydroxymethyl)-5a,5b,8,8,11a-pentamethyl-1-(prop-1-en-2-yl)-2,3,3a,4,5,5a,5b,6,7,7a,8,11,11a,11b,12,13,13a,13b-octadecahydro-1H-cyclopenta[a]chrysen-9-yl)benzoic acid] | > 6.00
5 | CC(C)[C@@H]1CC[C@]2(CO)CC[C@]3(C)[C@H](CC[C@@H]4[C@@]5(C)CC=C(c6ccc(C(=O)O)cc6)C(C)(C)[C@@H]5CC[C@]43C)[C@@H]12 [Example 10, 4-((1S,3aS,5aR,5bR,7aR,11aS,11bR,13aR,13bR)-3a-(hydroxymethyl)-1-isopropyl-5a,5b,8,8,11a-pentamethyl-2,3,3a,4,5,5a,5b,6,7,7a,8,11,11a,11b,12,13,13a,13b-octadecahydro-1H-cyclopenta[a]chrysen-9-yl)benzoic acid] | > 6.00
6 | C=C(C)[C@@H]1CC[C@]2(CO)CC[C@]3(C)[C@H](CC[C@@H]4[C@@]5(C)CC=C(c6ccc(C(=O)O)cc6)C(C)(C)[C@@H]5CC[C@]43C)[C@@H]12 [Example 5b, 4-((1R,3aS,5aR,5bR,7aR,11aS,11bR,13bR)-3a-(hydroxymethyl)-5a,5b,8,8,11a-pentamethyl-1-(prop-1-en-2-yl)-2,3,3a,4,5,5a,5b,6,7,7a,8,11,11a,11b,12,13,13a,13b-octadecahydro-1H-cyclopenta[a]chrysen-9-yl)benzoic acid] | > 6.00
7 | C=C(C)[C@@H]1CC[C@]2(C(=O)O)CC[C@]3(C)[C@H](CC[C@@H]4[C@@]5(C)CC=C(c6ccccc6CCC(=O)O)C(C)(C)[C@@H]5CC[C@]43C)[C@@H]12 [Example 4l, (1R,3aS,5aR,5bR,7aR,11aS,11bR,13aR,13bR)-9-(2-(2-carboxyethyl)phenyl)-5a,5b,8,8,11a-pentamethyl-1-(prop-1-en-2-yl)-2,3,3a,4,5,5a,5b,6,7,7a,8,11,11a,11b,12,13,13a,13b-octadecahydro-1H-cyclopenta[a]chrysene-3a-carboxylic acid] | < 6.00
